Measured values taken from patent US20220117938A1, “COMBINATON THERAPY WITH A DON PRODRUG AND AN IMMUNE CHECKPOINT INHIBITOR” (DRACEN PHARMACEUTICALS, INC., priority 2019, published 2022).

System: MC38 tumors
Assay: Anti-tumor efficacy of Compound 1 and Compound 3 by IV and SC routes in the MC38 model (Example 9)
Format: in vivo, mice
Description: Female C57BL/6 mice were inoculated subcutaneously in the right flank with MC38 cells for tumor development. Six days after tumor inoculation, mice with tumor sizes ranging from 52-97 mm^3 (average tumor size 71 mm^3) were selected and assigned into 10 groups using stratified randomization with 8 mice per group based upon their tumor volumes. The treatments were started from the day of randomization (defined as D0), Group 1 was treated with Vehicle control, SC qd×5 days on (Mon-Fri)×4 cycles; Group 2 was treated with Compound 1, 1.4 mpk SC, qd×5 days on (Mon-Fri)×4 cycles; Group 3 was treated with Compound 1, 7 mpk IV, biw (Mon, Thu)×4 cycles; Group 4 was treated with Compound 1, 14 mpk IV, biw (Mon, Thu)×4 cycles; Group 5 was treated with Compound 1, 14 mpk IV, qw (Mon)×4 cycles; Group 6 was treated with Compound 1, 21 mpk IV, qw (Mon)×4 cycles; Group 7 was treated with Compound 3, 1 mpk SC, qd 5 days on (Mon-Fri)×4 cycles; Group 8 was treated with Compound 3, 3 mpk SC, qd 5 days on (Mon-Fri)×4 cycles; Group 9 was treated with Compound 3, 9 mpk SC, qd 5 days on (Mon-Fri)×4 cycles; and Group 10 was treated with Compound 3, 7 mpk IV, tiw (Mon, Wed, Fri)×4 cycles. The tumor sizes were measured three times per week during the treatment. Survival was monitored with tumor volume exceeding 2000 mm^3 as endpoint. The entire study was terminated on D44 after start of the treatment. All treatments were well-tolerated without any adverse effects or significant body weight loss.

[1] = Group 7, 1 mpk SC qd Mon-Fri x4 cycles
[2] = Group 7, 1 mpk SC qd Mon-Fri x4 cycles, day 11
[3] = Group 8, 3 mpk SC qd Mon-Fri x4 cycles
[4] = Group 8, 3 mpk SC qd Mon-Fri x4 cycles, day 11
[5] = Group 9, 9 mpk SC qd Mon-Fri x4 cycles
[6] = Group 9, 9 mpk SC qd Mon-Fri x4 cycles, day 11
[7] = Group 10, 7 mpk IV tiw x4 cycles

CC(=O)N[C@@H](Cc1c[nH]c2ccccc12)C(=O)N[C@@H](CCC(=O)C=[N+]=[N-])C(=O)O [Compound 3, (S)-2-((S)-2-acetamido-3-(1H-indol-3-yl)propanamido)-6-diazo-5-oxohexanoic acid]
ILS [1]: 106.7% | MST [1]: 31 days | RTV at day 11 [1]: 2.22 ± 0.22 | Tumor Size at day 11 [1]: 152 ± 10 mm^3 | Tumor volume (Group 7, 1 mpk SC qd Mon-Fri x4 cycles, day 0): 70 ± 4 mm^3 | Tumor volume (Group 7, 1 mpk SC qd Mon-Fri x4 cycles, day 2): 91 ± 9 mm^3 | Tumor volume (Group 7, 1 mpk SC qd Mon-Fri x4 cycles, day 4): 83 ± 9 mm^3 | Tumor volume (Group 7, 1 mpk SC qd Mon-Fri x4 cycles, day 7): 201 ± 26 mm^3 | Tumor volume (Group 7, 1 mpk SC qd Mon-Fri x4 cycles, day 9): 181 ± 18 mm^3 | T/C [2]: 13.66% | TGI [2]: 92.34% | Tumor volume [2]: 152 ± 10 mm^3 | Tumor volume (Group 7, 1 mpk SC qd Mon-Fri x4 cycles, day 14): 293 ± 60 mm^3 | Tumor volume (Group 7, 1 mpk SC qd Mon-Fri x4 cycles, day 16): 298 ± 60 mm^3 | Tumor volume (Group 7, 1 mpk SC qd Mon-Fri x4 cycles, day 18): 400 ± 79 mm^3 | Tumor volume (Group 7, 1 mpk SC qd Mon-Fri x4 cycles, day 21): 644 ± 160 mm^3 | Tumor volume (Group 7, 1 mpk SC qd Mon-Fri x4 cycles, day 23): 975 ± 238 mm^3 | ILS [3]: 170.0% | MST [3]: 40.5 days | RTV at day 11 [3]: 0.85 ± 0.11 | Tumor Size at day 11 [3]: 39 ± 5 mm^3 | Tumor volume (Group 8, 3 mpk SC qd Mon-Fri x4 cycles, day 0): 70 ± 5 mm^3 | Tumor volume (Group 8, 3 mpk SC qd Mon-Fri x4 cycles, day 2): 88 ± 7 mm^3 | Tumor volume (Group 8, 3 mpk SC qd Mon-Fri x4 cycles, day 4): 59 ± 9 mm^3 | Tumor volume (Group 8, 3 mpk SC qd Mon-Fri x4 cycles, day 7): 57 ± 14 mm^3 | Tumor volume (Group 8, 3 mpk SC qd Mon-Fri x4 cycles, day 9): 45 ± 6 mm^3 | T/C [4]: 5.22% | TGI [4]: 101.21% | Tumor volume [4]: 39 ± 5 mm^3 | Tumor volume (Group 8, 3 mpk SC qd Mon-Fri x4 cycles, day 14): 41 ± 7 mm^3 | Tumor volume (Group 8, 3 mpk SC qd Mon-Fri x4 cycles, day 16): 47 ± 7 mm^3 | Tumor volume (Group 8, 3 mpk SC qd Mon-Fri x4 cycles, day 18): 22 ± 4 mm^3 | Tumor volume (Group 8, 3 mpk SC qd Mon-Fri x4 cycles, day 21): 29 ± 3 mm^3 | Tumor volume (Group 8, 3 mpk SC qd Mon-Fri x4 cycles, day 23): 26 ± 2 mm^3 | Tumor volume (Group 8, 3 mpk SC qd Mon-Fri x4 cycles, day 25): 23 ± 4 mm^3 | Tumor volume (Group 8, 3 mpk SC qd Mon-Fri x4 cycles, day 28): 22 ± 4 mm^3 | Tumor volume (Group 8, 3 mpk SC qd Mon-Fri x4 cycles, day 30): 52 ± 8 mm^3 | Tumor volume (Group 8, 3 mpk SC qd Mon-Fri x4 cycles, day 32): 213 ± 47 mm^3 | Tumor volume (Group 8, 3 mpk SC qd Mon-Fri x4 cycles, day 35): 351 ± 61 mm^3 | Tumor volume (Group 8, 3 mpk SC qd Mon-Fri x4 cycles, day 37): 692 ± 129 mm^3 | ILS [5]: 180.0% | MST [5]: 42 days | RTV at day 11 [5]: 0.56 ± 0.07 | Tumor Size at day 11 [5]: 39 ± 5 mm^3 | Tumor volume (Group 9, 9 mpk SC qd Mon-Fri x4 cycles, day 0): 71 ± 5 mm^3 | Tumor volume (Group 9, 9 mpk SC qd Mon-Fri x4 cycles, day 2): 88 ± 7 mm^3 | Tumor volume (Group 9, 9 mpk SC qd Mon-Fri x4 cycles, day 4): 59 ± 9 mm^3 | Tumor volume (Group 9, 9 mpk SC qd Mon-Fri x4 cycles, day 7): 57 ± 14 mm^3 | Tumor volume (Group 9, 9 mpk SC qd Mon-Fri x4 cycles, day 9): 45 ± 6 mm^3 | T/C [6]: 3.45% | TGI [6]: 102.98% | Tumor volume [6]: 39 ± 5 mm^3 | Tumor volume (Group 9, 9 mpk SC qd Mon-Fri x4 cycles, day 14): 41 ± 7 mm^3 | Tumor volume (Group 9, 9 mpk SC qd Mon-Fri x4 cycles, day 16): 47 ± 7 mm^3 | Tumor volume (Group 9, 9 mpk SC qd Mon-Fri x4 cycles, day 18): 22 ± 4 mm^3 | Tumor volume (Group 9, 9 mpk SC qd Mon-Fri x4 cycles, day 21): 29 ± 3 mm^3 | Tumor volume (Group 9, 9 mpk SC qd Mon-Fri x4 cycles, day 23): 26 ± 2 mm^3 | Tumor volume (Group 9, 9 mpk SC qd Mon-Fri x4 cycles, day 25): 23 ± 4 mm^3 | Tumor volume (Group 9, 9 mpk SC qd Mon-Fri x4 cycles, day 28): 22 ± 4 mm^3 | Tumor volume (Group 9, 9 mpk SC qd Mon-Fri x4 cycles, day 30): 52 ± 8 mm^3 | Tumor volume (Group 9, 9 mpk SC qd Mon-Fri x4 cycles, day 32): 213 ± 47 mm^3 | Tumor volume (Group 9, 9 mpk SC qd Mon-Fri x4 cycles, day 35): 351 ± 61 mm^3 | Tumor volume (Group 9, 9 mpk SC qd Mon-Fri x4 cycles, day 37): 692 ± 129 mm^3 | Tumor volume (Group 9, 9 mpk SC qd Mon-Fri x4 cycles, day 39): 1235 ± 196 mm^3 | Tumor volume (Group 9, 9 mpk SC qd Mon-Fri x4 cycles, day 42): 2174 ± 275 mm^3 | ILS [7]: 146.7% | MST [7]: 37 days | Tumor volume (Group 10, 7 mpk IV tiw x4 cycles, day 0): 71 ± 5 mm^3 | Tumor volume (Group 10, 7 mpk IV tiw x4 cycles, day 2): 86 ± 5 mm^3 | Tumor volume (Group 10, 7 mpk IV tiw x4 cycles, day 4): 76 ± 7 mm^3 | Tumor volume (Group 10, 7 mpk IV tiw x4 cycles, day 7): 76 ± 8 mm^3 | Tumor volume (Group 10, 7 mpk IV tiw x4 cycles, day 9): 61 ± 7 mm^3 | Tumor volume (Group 10, 7 mpk IV tiw x4 cycles, day 11): 68 ± 13 mm^3 | Tumor volume (Group 10, 7 mpk IV tiw x4 cycles, day 14): 85 ± 16 mm^3 | Tumor volume (Group 10, 7 mpk IV tiw x4 cycles, day 16): 115 ± 21 mm^3 | Tumor volume (Group 10, 7 mpk IV tiw x4 cycles, day 18): 107 ± 21 mm^3 | Tumor volume (Group 10, 7 mpk IV tiw x4 cycles, day 21): 131 ± 21 mm^3 | Tumor volume (Group 10, 7 mpk IV tiw x4 cycles, day 23): 233 ± 46 mm^3 | Tumor volume (Group 10, 7 mpk IV tiw x4 cycles, day 25): 273 ± 59 mm^3 | Tumor volume (Group 10, 7 mpk IV tiw x4 cycles, day 28): 356 ± 103 mm^3 | Tumor volume (Group 10, 7 mpk IV tiw x4 cycles, day 30): 575 ± 121 mm^3 | Tumor volume (Group 10, 7 mpk IV tiw x4 cycles, day 32): 849 ± 134 mm^3 | Tumor volume (Group 10, 7 mpk IV tiw x4 cycles, day 35): 1688 ± 223 mm^3
